Data set [1] can be described thus: Solubility of the peptide product in MeOH. The class given is physicochemical. The conditions noted are these: fully protected peptide made with pseudoproline/Dmb dipeptides, 'as high as', read-out: solubility (concentration easily achieved). The source says: To improve the peptide synthesis yields and purities, as well as the solubilities of crude products, we attempted various strategies, including the replacement of the synthesized chlorotrityl resin with commercially available NovaSyn® TGT resin (preloaded with Fmoc-amino acids), the use of Ser/Thr-derived oxazolidines (pseudoprolines) and Dmb (2,4-dimethoxybenzyl)dipeptides, 1, 2, 3 and 4 shown below. While 1, 2 and 4 are available in large scale, 3 had to be prepared from a multistep synthesis. These dipeptides could be incorporated into the growing peptide chain in the same manner as normal amino acids activated by HATU. The synthesis outlined below exploited all the beneficial properties of these strategies and produced […] as determined by LC-MS.

The target of a further data set is T1, EPO-R (Homo sapiens, UniProt P19235).
T1 sequence (P19235 25-508): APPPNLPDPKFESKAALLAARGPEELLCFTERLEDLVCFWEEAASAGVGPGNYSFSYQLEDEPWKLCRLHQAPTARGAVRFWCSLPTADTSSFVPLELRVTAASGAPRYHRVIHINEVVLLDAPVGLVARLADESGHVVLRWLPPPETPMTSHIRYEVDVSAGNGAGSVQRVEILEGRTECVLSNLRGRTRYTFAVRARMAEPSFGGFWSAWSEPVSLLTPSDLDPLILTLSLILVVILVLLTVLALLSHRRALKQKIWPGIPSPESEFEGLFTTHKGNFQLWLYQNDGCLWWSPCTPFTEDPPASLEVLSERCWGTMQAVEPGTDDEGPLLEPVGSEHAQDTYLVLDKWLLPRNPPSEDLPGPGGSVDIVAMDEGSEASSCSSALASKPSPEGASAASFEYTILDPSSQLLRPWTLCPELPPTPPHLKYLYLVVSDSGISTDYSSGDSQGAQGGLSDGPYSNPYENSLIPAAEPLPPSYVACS
The conditions noted are these: in vitro; compared to rHuEPO; cited from earlier work.

The conditions of data set [2]: compared to rHuEPO; cited from earlier work.

≈ marks a conversion by molar mass, not a printed value.

Regarding `COc1ccc(CN(C(=O)[C@H](CC(=O)OCc2ccc(NC(CC(C)C)=C3C(=O)CC(C)(C)CC3=O)cc2)NC(=O)[C@@H](NC(=O)[C@H](Cc2cn(C(c3ccccc3)(c3ccccc3)c3ccccc3)cn2)NC(=O)[C@H](CC(C)C)NC(=O)[C@H](CCC(=O)NC(c2ccccc2)(c2ccccc2)c2ccccc2)NC(=O)[C@H](CC(C)C)NC(=O)[C@@H]2CCCN2C(=O)[C@H](CCC(=O)OCc2ccc(NC(CC(C)C)=C3C(=O)CC(C)(C)CC3=O)cc2)NC(=O)[C@H](Cc2cn(C(=O)OC(C)(C)C)c3ccccc23)NC(=O)[C@@H]2CCCN2C(=O)[C@H](CCC(=O)NC(c2ccccc2)(c2ccccc2)c2ccccc2)NC(=O)[C@H](COC(C)(C)C)NC(=O)[C@@H]2COC(C)(C)N2C(=O)[C@H](CC(=O)OC(C)(C)C)NC(=O)[C@@H](NC(=O)[C@H](CC(C)C)NC(=O)[C@H](CC(C)C)NC(=O)[C@H](C)NC(=O)[C@@H](N)CCC(=O)NC(c2ccccc2)(c2ccccc2)c2ccccc2)C(C)C)C(C)C)[C@@H](CCCCNC(CC(C)C)=C2C(=O)CC(C)(C)CC2=O)C(=O)N[C@@H](C)C(=O)N[C@H](C(=O)N2[C@H](C(=O)NCC(=O)N[C@@H](CC(C)C)C(=O)N[C@@H](CCCNC(=N)NS(=O)(=O)c3c(C)c(C)c4c(c3C)CC(C)(C)O4)C(=O)N[C@@H](COC(C)(C)C)C(=O)N[C@@H](CC(C)C)C(=O)N3[C@H](C(=O)N[C@H](C(=O)N[C@@H](CC(C)C)C(=O)N[C@@H](CC(C)C)C(=O)N[C@@H](CCCNC(=N)NS(=O)(=O)c4c(C)c(C)c5c(c4C)CC(C)(C)O5)C(=O)N[C@@H](C)C(=O)N[C@@H](CC(C)C)C(=O)NCC(=O)O)[C@@H](C)OC(C)(C)C)[C@@H](C)OC3(C)C)COC2(C)C)C(C)C)c(OC)c1` [EPO(78-113)], in data set [1], the solubility is 4.6 mM (≈ 31.3 mg/mL).

As for darbepoetin alfa, the “affinity for the EPO-R” value on EPO-R is given as “diminished by approximately one-fourth”. For the same compound, the activity in vivo entry in data set [2] is recorded as “remained the same”.

(Values after patent US8754192B2, “Compositions comprising homogeneously glycosylated erythropoietin” (Sloan-Kettering Institute for Cancer Research, priority 2006, dated 2014).)
